Where “and” joins values, the source holds several entries; their conditions need not be identical. Equal entries are not always repeated. Entries after “also recorded” stand apart in the source; their conditions may differ. Structures can show the parent of a compound that is named as a salt. Where two headings read alike, the source gives them in different places.
How the values were obtained:
cathepsin L = target: T1, cathepsin L (Homo sapiens, UniProt P07711); assay: Enzymatic cathepsin L inhibition assay (Eurofins); type: biochemical
T1 construct: purchased Eurofins (contract assay)
T1 sequence (P07711 114-333): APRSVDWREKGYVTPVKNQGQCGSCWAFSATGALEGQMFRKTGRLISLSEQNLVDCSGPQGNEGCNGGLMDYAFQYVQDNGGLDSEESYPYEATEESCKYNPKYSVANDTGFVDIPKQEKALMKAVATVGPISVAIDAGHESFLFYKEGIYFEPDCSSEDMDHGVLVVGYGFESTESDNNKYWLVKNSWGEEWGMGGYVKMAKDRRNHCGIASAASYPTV

SARS-CoV-2 [1] = assay: microbe, parasite or virus in culture; type: cell-based, SARS-CoV-2 (Lineage A, B.1); conditions: for EC50: vRNA (qPCR), read-out: EC50 against SARS-CoV-2 in HNECs; for antiviral activity in HNEC ALI cultures (in words): viral RNA copies in apical washes over three days
SARS-CoV-2 [2] = assay: SARS-CoV-2 viral RNA copy determination in A549-hACE2 cells (RT-qPCR on supernatant); type: cell-based; conditions: for reduction of SARS-CoV-2 RNA in the supernatant: A549-hACE2, RT-qPCR at 48 hpi; for EC50: read-out: EC50, viral RNA reduction in supernatant
[3] = Cytotoxicity in uninfected A549-hACE2 cells (ATPlite); conditions: human, A549-hACE2 cells
A549-hACE2 cells = assay: as above; conditions: for CC50: read-out: CC50 in A549-hACE2, Toxicity (ATPlite), uninfected cells
SARS-CoV-2 [4] = assay: Immunofluorescence (HCI, spike stain) antiviral assay, SARS-CoV-2 in A549-hACE2; type: cell-based; conditions: read-out: EC50 against SARS-CoV-2 in A549-hACE2
SARS-CoV-2 [5] = assay: Immunofluorescence (HCI, dsRNA stain) antiviral assay, SARS-CoV-2 in HeLa-hACE2; type: cell-based; conditions: read-out: EC50 against SARS-CoV-2 in HeLa-hACE2
SARS-CoV-2 [6] = assay: Antiviral assessment in Caco-2 cells by visual CPE scoring; type: cell-based; conditions: read-out: EC50 against SARS-CoV-2 in Caco-2
in vitro [7] = conditions: human, Caco-2
[8] = system: SARS-CoV-2 pseudovirus (SARS2pp); assay: microbe, parasite or virus in culture; type: cell-based
HCoV-229E = assay: microbe, parasite or virus in culture; type: cell-based, human coronavirus 229E; conditions: HCI (dsRNA stain), 24 h at 35 °C, read-out: EC50 against HCoV-229E in HeLa-hACE2
SARS-CoV-1 = assay: microbe, parasite or virus in culture; type: cell-based; conditions: 24 h, read-out: EC50 against SARS-CoV-1 in A549-hACE2
[9] = system: SARS-CoV-2 pseudovirus (SARS2pp); assay: microbe, parasite or virus in culture; type: cell-based; conditions: luciferase, 24 h, read-out: EC50, neutralization of SARS2pp entry in VeroE6
SARS-CoV-2 [10] = assay: SARS-CoV-2 antiviral assay in VeroE6-eGFP cells (CPE reduction, GFP); conditions: for EC50: MOI 0.001, 96 h
HeLa-hACE2 cells = assay: Immunofluorescence-based antiviral assay with LysoTracker dye in HeLa-hACE2; conditions: for LysoTracker signal intensity (in words): HeLa-hACE2, acidic organelle accumulation
SARS-CoV-2 [11] = assay: Time-of-addition (TOA) assay in HeLa-hACE2, dsRNA staining; type: cell-based; conditions: HeLa-hACE2, MOI 4, 2.5-5 µM compound, dsRNA readout at 8 hpi
in vitro [12] = conditions: African green monkey
SARS-CoV-2 [13] = system: SARS-CoV-2
in vitro [14] = conditions: African green monkey; remark: listed apart in the source
[15] = A549-hACE2, SARS-CoV-2 MOI 0.1, RT-qPCR at 48 hpi
[16] = Severe acute respiratory syndrome coronavirus 2, A549-hACE2, SARS-CoV-2 MOI 0.1, RT-qPCR at 48 hpi
[17] = Severe acute respiratory syndrome coronavirus 2, 24 h
[18] = Severe acute respiratory syndrome-related coronavirus, VeroE6/TMPRSS2, SARS2pp, mean ± SD, unit inferred, [µM] only in axis labels, read-out: VeroE6 TMPRSS2: EC50 (Figure 6)
[19] = Severe acute respiratory syndrome coronavirus
[20] = Severe acute respiratory syndrome-related coronavirus, Vero C1008
[21] = Severe acute respiratory syndrome coronavirus 2, 96 h, read-out: EC50 against SARS-CoV-2 in VeroE6-eGFP, CPE reduction (GFP)
[22] = read-out: EC50 against SARS-CoV-2 in VeroE6-eGFP, CPE reduction (GFP)

With `CC(=O)N[C@@H](CC(C)C)C(=O)N[C@@H](CC(C)C)C(=O)N[C@H](C=O)CCCNC(=N)N` [leupeptin] the “cathepsin L activity (in words)” value (cathepsin L; positive control) was “blocked cathepsin L activity”.
In the case of `C[C@H](NC(=O)[C@H](Cc1ccc(O)cc1)NC(=O)OCc1ccccc1)C(=O)C=[N+]=[N-]`, the EC50 (SARS-CoV-2 [1]; Severe acute respiratory syndrome coronavirus 2) is reported as greater than 20000 nM, the “antiviral activity in HNEC ALI cultures (in words)” value (SARS-CoV-2 [1]; compound at 20 µM) is reported as “does not inhibit SARS-CoV-2 infection; also recorded: did not show antiviral activity” and the “antiviral activity in differentiated HNECs (in words)” value (SARS-CoV-2 [1]; concentration not given) is reported as “did not show antiviral activity”. The “reduction of SARS-CoV-2 RNA in the supernatant” value (“reduction of SARS-CoV-2 RNA” for short) (SARS-CoV-2 [2]) was ~ 4 log and 4 log, the EC50 (SARS-CoV-2 [2]; [15]) was 321 nM and the EC50 (SARS-CoV-2 [2]; [16]) was 320 nM. The CC50 [3] was greater than 25000 nM, the “cytotoxicity (in words)” value (A549-hACE2 cells; uninfected A549-hACE2, ATPlite) was “did not show cytotoxicity” and the EC50 (SARS-CoV-2 [4]; 24 h) was 50 ± 3 nM. The EC50 (SARS-CoV-2 [4]; [17]) was 46 nM, the EC50 (cathepsin L; enzymatic assay, substrate Z-Phe-Arg AMC, one experiment) was less than 50 nM and the EC50 (SARS-CoV-2 [5]; 24 h) was 10 ± 1 nM. The EC50 (SARS-CoV-2 [5]; [17]) was 6 nM, the EC50 (SARS-CoV-2 [6]; Severe acute respiratory syndrome coronavirus 2, Caco-2, CPE reduction (manual scoring), MOI 0.01, 48 h) was greater than 50000 nM and the CC50 (in vitro [7]) was greater than 50000 nM. The “activity against SARS2pp in VeroE6 TMPRSS2 (in words)” value [8] was “not active at all”, the EC50 [8, 18] was greater than 30 µM and the EC50 (HCoV-229E) was 70 ± 10 nM. For the same compound, the EC50 (HCoV-229E; Human coronavirus 229E, 24 h) was 69 nM, the EC50 (SARS-CoV-1; [19]) was 50 ± 16 nM and the EC50 [9, 20] was 130 nM. For the same compound, the “selectivity index (SI), VeroE6-eGFP SARS-CoV-2” value (SARS-CoV-2 [10]; CC50/EC50 in VeroE6-eGFP) was greater than 15, the EC50 (SARS-CoV-2 [10]; [21]) was 1330 ± 490 nM and the “LysoTracker signal intensity (in words)” value (HeLa-hACE2 cells) was “did not significantly increase the intensity of the LysoTracker signal”. The “time of addition from which antiviral activity was lost” value (SARS-CoV-2 [11]) was no less than 2 h post virus infection.
In the case of `CC(C)(C)[C@H](NC(=O)C(F)(F)F)C(=O)N1C[C@H]2[C@@H]([C@H]1C(=O)N[C@H](C#N)C[C@@H]1CCNC1=O)C2(C)C` [PF-07321332, nirmatrelvir], the “antiviral activity in HNEC ALI cultures (in words)” value (SARS-CoV-2 [1]; compound at 2.5 µM) is reported as “did”, the EC50 (SARS-CoV-2 [1]) is reported as 180 ± 140 nM and the “time of addition until which inhibition of dsRNA formation was sustained” value (SARS-CoV-2 [11]) is reported as ~ 4 hpi.
For `COc1cccc2[nH]c(C(=O)N[C@@H](CC(C)C)C(=O)N[C@@H](C[C@@H]3CCNC3=O)C(=O)CO)cc12` [PF-00835231], the “reduction of SARS-CoV-2 RNA” value (SARS-CoV-2 [2]) was ~ 4.8 log, the EC50 (SARS-CoV-2 [2]; [15]) was 530 nM and 532 nM and the CC50 (A549-hACE2 cells) was greater than 12500 nM. It also gave a CC50 (VeroE6-eGFP cells) greater than 20000 nM, an EC50 (SARS-CoV-2 [4]; 24 h) of 180 ± 8 nM and an EC50 (SARS-CoV-2 [5]; 24 h) of 160 ± 20 nM. For the same compound, the EC50 (HCoV-229E) was 470 ± 40 nM, the EC50 (SARS-CoV-1; HCI (spike stain), MOI 0.1) was 550 ± 40 nM and the EC50 (SARS-CoV-2 [10]; [22]) was greater than 50000 nM. For the same compound, the “LysoTracker signal intensity (in words)” value (HeLa-hACE2 cells) was “neither one of the compounds increased the intensity of the LysoTracker signal” and the “time of addition until which inhibition of dsRNA formation was sustained” value (SARS-CoV-2 [11]) was ~ 4 hpi.
`CC(C)C(=O)OC[C@H]1O[C@@H](n2ccc(NO)nc2=O)[C@H](O)[C@@H]1O` [Molnu-Piravir, molnupiravir] gave a CC50 [3] greater than 50000 nM, an EC50 (SARS-CoV-2 [5]; [17]) of 1010 ± 110 nM and an EC50 (HCoV-229E; Human coronavirus 229E, 24 h) of 1320 ± 180 nM. For the same compound, the CC50 (in vitro [12]) was greater than 100000 nM.
For `CCC(CC)COC(=O)[C@H](C)N[P@](=O)(OC[C@H]1O[C@@](C#N)(c2ccc3c(N)ncnn23)[C@H](O)[C@@H]1O)Oc1ccccc1` [Remdesivir, remdesivir], the EC50 (SARS-CoV-2 [13]) was 1420 ± 150 nM, the “reduction of SARS-CoV-2 RNA” value (SARS-CoV-2 [2]) was ~ 4.5 log and the EC50 (SARS-CoV-2 [2]; [15]) was 411 nM. The EC50 (SARS-CoV-2 [2]; [16]) was 410 nM, the CC50 [3] was greater than 25000 nM and the EC50 (SARS-CoV-2 [4]; [17]) was 180 ± 10 nM. It also gave an EC50 (SARS-CoV-2 [5]; [17]) of 110 ± 10 nM, an EC50 (SARS-CoV-2 [6]; Severe acute respiratory syndrome coronavirus 2, Caco-2, 48 h) of 770 ± 260 nM and an EC50 (HCoV-229E; Human coronavirus 229E, 24 h) of 110 ± 9 nM. The EC50 (SARS-CoV-1; [19]) was 330 ± 20 nM, the CC50 (in vitro [12]) was greater than 100000 nM and the EC50 (SARS-CoV-2 [10]; [21]) was 1340 nM. The “LysoTracker signal intensity (in words)” value (HeLa-hACE2 cells) was “neither one of the compounds increased the intensity of the LysoTracker signal” and the “time of addition until which inhibition of dsRNA formation was sustained” value (SARS-CoV-2 [11]) was ~ 4 hpi.
With `CN(C)C(=O)COC(=O)Cc1ccc(OC(=O)c2ccc(NC(=N)N)cc2)cc1` [Camostat mesylate, camostat mesylate] the EC50 [8, 18] was 18 ± 5.52 µM, the EC50 ([8]; Severe acute respiratory syndrome-related coronavirus, VeroE6/TMPRSS2, luciferase, 24 h, read-out: EC50, neutralization of SARS2pp entry in VeroE6 TMPRSS2) was roughly 18 µM and the EC50 [9, 20] was greater than 30000 nM. For the same compound, the CC50 (in vitro [14]) was greater than 30000 nM.
In the case of `CN1CCN(C(=O)N[C@@H](Cc2ccccc2)C(=O)N[C@H](/C=C/S(=O)(=O)c2ccccc2)CCc2ccccc2)CC1` [K777], the CC50 (A549-hACE2 cells) is reported as greater than 50 nM, the CC50 (VeroE6-eGFP cells) is reported as roughly 50000 nM and the EC50 (SARS-CoV-2 [4]; 24 h) is reported as 4 ± 0.2 nM. It also gave an EC50 (SARS-CoV-2 [5]; 24 h) of 0.6 ± 0.05 nM, an EC50 ([8]; luciferase, 24 h, read-out: EC50, neutralization of SARS2pp entry in VeroE6 TMPRSS2) of 18.6 µM and an EC50 (HCoV-229E) of 2 ± 0.4 nM. The EC50 (SARS-CoV-1; HCI (spike stain), MOI 0.1) was 3 ± 0.5 nM, the EC50 [9] was 23 nM and the CC50 (VeroE6 cells) was greater than 30000 nM. The EC50 (SARS-CoV-2 [10]; [22]) was 540 ± 140 nM and the “concentration at which the LysoTracker signal is significantly increased” value (HeLa-hACE2 cells; HeLa-hACE2, adjusted p-value < 0.05 vs virus control) was no less than 2.2 µM.

— PMC10055926
